Reference: patent publication US6605115B1, “Method and composition for inhibiting cardiovascular cell proliferation” (Board of Trustees of the Leland Stanford Junior University, priority 1999, dated 2003)

Legend:
cytokine-stimulated VSMC = test: Effect of arginine oligomers on NO production in cytokine-stimulated VSMC (NO2, Griess); format: cell-based, rat
Procedure: Rat VSMCs were prepared from the media layer of thoracic aorta of Sprague-Dawley rats by the explant method. The cells were cultured in Dulbecco's modified Eagle's medium (DMEM, Gibco BRL, Gaithersburg, Md.) containing 10% fetal calf serum, 100 U/ml penicillin and 100 μg/ml streptomycin at 37° C. under a humidified atmosphere containing 5% CO2. After subconfluent growth, cells were cultured with MEM Select Amine Kit (Gibco BRL, Gaithersburg, Md.) to be treated by specific concentrations of extracellular free L-arginine. Experiments were performed using cultured cells at passage levels of 5-10.
Extracellular NO production was measured as its stable oxidative metabolite, nitrite (NO2). At the end of each incubation, samples of the medium (80 μl) were collected, and NO2 measurement was performed using the Griess reaction facilitated by a commercial calorimetric assay (Cayman Chemical, Ann Arbor, Mich.). Values of NO2 production were corrected with relative cell count assessed by a cell proliferation kit II (XTT) (Boeheringer Mannheim, Germany).
Subconfluent cells were pre-incubated with medium containing 100 μM arginine for 24 hours. The cells were then transiently pretreated with each arginine polymer for 30 minutes. After translocation, the cells were incubated with a mixture of IFN-γ (100 U/ml) and LPS (100 μg/ml) in medium containing 100 μM L-arginine for another 24 hours. In some experiments, L-NMMA (1 mM), a nitric oxide synthase inhibitor, was added to the medium.

[1] = test system: coronary vessels of transplanted PVG rat donor hearts; test: Heart transplant study (graft coronary artery disease, GCAD); format: in vivo; conditions: for % affected vessels / % luminal narrowing / I/M ratio: intracoronary 50 uM, 30 minutes
Procedure: In this study, PVG rat donor hearts (n=48) were transplanted heterotopically into the abdomen of ACI recipients. Donor hearts received either intracoronary PBS or intracoronary 50 uM (L)-arginine polymer (L-R5 or L-R9) for 30 minutes. (D-arginine polymers were not included in this study.) Each of these groups was further divided into 60 and 90 day study animals (n=6 each). Percent luminal narrowing, intima to media ratio (I/M), and percent affected vessels were determined as described in Example 11, below. Transfection efficiency was determined by infusing biotinylated R5 and R9, as in the preceding studies, and calculating the percentage of biotin positive nuclei divided by total number of nuclei.
PVG rat donor hearts (n=48) were transplanted heterotopically into the abdomen of ACI recipients. Donor hearts received either intracoronary PBS or intracoronary 50 uM (L)-arginine polymer (L-R5 or L-R9) for 30 minutes. Each group was further divided into 60 and 90 day study animals (n=6 each). Tissue cross sections (5μ) were stained with EVG (Elastica-van Gieson) preparation, and vessels were scored using computerized morphometry for analysis of % luminal narrowing, intima to media ratio (I/M), and % affected vessels. Transfection efficiency was determined by infusing biotinylated R5 and R9, as in preceding examples, and calculating the percentage of biotin positive nuclei divided by total number of nuclei. Results are described in Section IV C, above.

[2] = test system: rat vascular smooth muscle cells (VSMC); test: Translocation of biotin-labeled peptides into cultured VSMC (HRP-streptavidin/DAB staining); format: cell-based; conditions: for internalized biotin signal (staining): 30 minutes
Procedure: In the studies described below, transmembrane transport and cellular uptake of oligomers was assessed by incubating cells or tissue with biotin-oligomer conjugates, followed by treatment with horseradish peroxidase (HRP)-conjugated streptavidin and subsequent incubation with DAB (3,3′-diaminobenzidine), a substrate of the enzyme which produces a highly colored product.
Cultured VSMC (vascular smooth muscle cells) were treated, as described in Example 2, with biotinylated oligomers of arginine or lysine. After incubation, the cells were treated with HRP-streptavidin conjugate, then with DAB. Staining by the oxidation product was observed using light microscopy.
Rat VSMCs were grown on glass microscope slide chambers (Nunc Inc., Naperville, Ill.). Subconfluent cells were washed and placed in serum-free medium. After 2 hours, cells were treated with bR7, or bK7 (0.1 μM, 1.0 μM, 10 μM), at 37° C. for 30 minutes. To assess the role of endocytosis in cellular uptake of the peptides, experiments were performed at 4° C., and also in the presence of sodium azide (1.0%) for 30 minutes prior to exposure to the peptides. To assess the involvement of the basic amino acid transport system y+ in the translocation of peptides into the cell, experiments were performed in the presence of excess extracellular L-arginine (10 mM).
After 30 minutes of incubation with the peptides, cells were washed 3 times with phosphate-buffered saline (PBS), fixed for 5 minutes at −20° C. in ethanol/acetone, washed 3 times in PBS, incubated for 30 minutes with a peroxidase suppressor (ImmunoPure, Pierce, Rockford, Ill.) to block endogenous peroxidase activity and nonspecific binding, washed, and then incubated with 5 μg/ml of horseradish peroxidase (HRP) conjugated strepavidin (Pierce, Rockford, Ill.) for 30 minutes. Cells were washed 3 times with PBS, and a substrate of HRP, DAB (Sigma, St. Louis, […].), was added to the cells. The reaction was terminated by washing in distilled water after a 60-second incubation with DAB. Cell preparations were observed by conventional light microscopy (see FIG. 1). This experimental protocol was repeated 3 times.

[3] = test system: human umbilical vein endothelial cells (ECV304); test: In vitro translocation of biotin-labeled peptides into endothelial cells; format: cell-based; conditions: endothelial cells
Procedure: Spontaneously transformed human umbilical vein endothelial cells (ECV304, ATCC) were cultured in medium M199 (Irvine Scientific) containing 10% fetal bovine serum (FBS), 100 IU/ml penicillin and 100 μg/ml of streptomycin (Gibco BRL). Confluent cells were washed and placed in serum-free medium. After 2 hours, the cells were incubated in presence of biotin labeled peptides, as bL-R7, or bD-R7, or bL-K7 (0.1, 1.0, and 10.0 μM). After 30 minutes of incubation, cells were washed 3 times with phosphate-buffered saline (PBS), fixed in ethanol/acetone; washed in PBS; incubated for 30 minutes with peroxidase suppressor (ImmunoPure, Pierce) to block endogenous peroxidase activity; and then incubated with 5 μg/ml of horse-radish peroxidase (HRP) conjugated strepavidin (Pierce) for 30 minutes. Substrate of HRP, diaminobenzidine (DAB, Sigma), was added to the cells. The reaction was terminated by washing in distilled water after a 60-second incubation. This experiment was repeated 3 times.

[4] = test system: rabbit carotid artery segment; test: Ex vivo translocation study, carotid artery segments; set-up: species or system New Zealand white rabbits
Procedure: After incubation with biotin labeled oligomer, vascular segments were washed, then frozen in OCT compound (Miles Scientific). Frozen sections, 5 μm thick, were fixed with acetone for 10 minutes. Internalized biotin was detected using the staining procedure described in Example 2. Methyl green was used for nuclear counter staining.
To quantify the efficiency of nuclear translocation, the numbers of both DAB positive nuclei and total nuclei were counted in the intima and media separately at ×400 magnification with a video image analysis system (Automatrix). The frequency of nuclear translocation was expressed as the percent staining of nuclei, defined as the ratio of the number of DAB positive nuclei to that of all nuclei, in the intima and media. Each protocol was repeated 4 times.
Both carotid artery and jugular vein segments of male New Zealand white rabbits were used. To test the dose dependence of R7 translocation, vascular segments were incubated for 30 minutes with either bL-R7 or bD-R7 solution (0.1, 1.0, and 10.0 μM) in serum-free Dulbecco's minimal essential medium (DMEM) (Gibco BRL). To test the incubation time dependence, vascular segments were incubated with 10.0 μM of biotin labeled R7 solution for 10 seconds, 60 seconds, 5 minutes, 10 minutes, and 30 minutes. Furthermore, to determine the ability of R7 to penetrate through the vessel wall, vascular segments were ligated one end, R7 containing medium was instilled, and the other end ligated so as to expose only the luminal surface to R7. The luminal surface of the vascular segment was exposed to bL-R7 or bD-R7 (10.0 μM) for 30 minutes. To test the temperature dependence of translocation, vascular segments were incubated with 10.0 μM of biotin labeled R7 solutions at 37° C. or 4° C. To determine the disappearance time course of translocated R7, vascular segments were incubated with biotin labeled R7 solutions (10.0 μM) at 37° C. for 30 minutes, and then reincubated in DMEM with 10% FBS up to 5 days. Vascular segments were harvested at 1, 2 and 5 days after initial incubation.

vein graft segments = test: Ex vivo NOx production from vein graft harvested 3 days after surgery; format: in vivo, New Zealand white rabbits; conditions: A23187, 10.0 μM
Procedure: Vein grafts were harvested 3 days after surgery, as described in Example 7. Vein graft segments were incubated in 1 me of Hanks' buffered saline solution (HBSS, Irvine Scientific) containing Ca^2+ (1.0 mM) and L-arginine (100 μM, Sigma) at 37° C. for 2 hours. NOx (nitrate and nitrite) production was measured either in the absence (basal) or presence (stimulated) of calcium ionophore (A23187, 10.0 μM, Sigma). Samples of the medium (80 μL) were collected, and NOx measurement was performed using the Griess reaction facilitated by a commercial calorimetric assay (Cayman Chemical).

nona-L-arginine [R9]
NO production (cytokine-stimulated VSMC; pretreatment 30 minutes, then IFN-γ and LPS, 100 μM extracellular L-arginine): dose-dependent increases in NO production at doses as low as 10 μM
degree of enhancement of NO production (cytokine-stimulated VSMC; pretreatment 30 minutes, vs. vehicle treated cytokine-stimulated cells): 44±5.2%
GCAD compared to PBS controls ([1]; 60 and 90 days): significant reduction in GCAD
% affected vessels ([1]; 60 days): 6.5 ± 6.9%
% luminal narrowing ([1]; 60 days): 3.2 ± 3.8%
I/M ratio ([1]; 60 days): .03 ± .04
% affected vessels ([1]; 90 days): 4.9 ± 7.1%
% luminal narrowing ([1]; 90 days): 1.6 ± 3.3%
I/M ratio ([1]; 90 days): .01 ± .02
transfection of coronary vessels ([1]; biotinylated oligomer infused): marked transfection of the intima and media of coronary vessels

biotin-labeled heptaarginine [bR7]
internalized biotin signal (staining) ([2]; 0.1 μM): internalized biotin was observed in all VSMCs
internalized biotin signal (staining) ([2]; 10 μM, 37° C.): very intense staining, not only in the cytoplasm, but also in the nucleus of all VSMC
efficacy of translocation at 4° C. ([2]; 4° C.): no apparent reduction was observed in the efficacy of bR7 translocation
cytoplasmic and nuclear staining after sodium azide ([2]; cells exposed to 1% sodium azide for 30 minutes prior to incubation): neither cytoplasmic nor nuclear staining was observed
translocation in presence of free L-arginine ([2]; free L-arginine up to 10 mM added): Nor was translocation of bR7 inhibited
internalized biotin ([3]; 0.1 μM): internalized biotin was observed in the cytoplasm of all EC
internalized biotin ([3]; 10.0 μM for 30 minutes): internalized biotin was detected not only in the cytoplasm but also in the nucleus of virtually all exposed endothelial cells
speed or efficacy of translocation into vascular tissue at 4° C. ([4]; 10.0 μM, 4° C.): no apparent reduction in the speed or efficacy
biotin signals after intraluminal instillation ([4]; 10.0 μM, 30 minutes of intraluminal exposure): biotin signals were detected throughout the vessel, including the adventitial cells
biotin signal in vascular cells ([4]; carotid artery, 10.0 μM, 30 minutes): a distinct biotin signal was observed in virtually all intimal cells, medial cells, and adventitial cells
biotin staining by day 5 ([4]; day 5 after exposure (10.0 μM), serum containing medium): No significant positive staining

CNc1ccc2oc(C[C@H]3O[C@@]4(CC[C@H]3C)O[C@H]([C@H](C)C(=O)c3ccc[nH]3)[C@H](C)C[C@H]4C)nc2c1C(=O)O [Calcium ionophore, reference compound]
NOx production by the vein grafts on calcium ionophore stimulation (vein graft segments): did not significantly affect the NOx production

hepta-L-lysine [K7, reference compound]
NO production (cytokine-stimulated VSMC; 100 μM, 30 minutes): did not increase the NO production

CNC(=N)NCCC[C@H](N)C(=O)O [L-NMMA, N^G-monomethyl L-arginine, reference compound]
enhancement of NO production in R7 treated cells after NO synthase inhibitor (cytokine-stimulated VSMC; L-NMMA (1 mM) added to R7 treated cells): abolished
